Measured values as given in publication PMC8147781, “Discovery of Pyrrolidine-2,3-diones as Novel Inhibitors of P. aeruginosa PBP3” (Antibiotics, 2021).
Values joined by “and” are separate entries in the source; they are usually repeats but may differ in a detail not shown here. Identical values can stand only once.

Molecular target: T1, PaPBP3 coated on a CM5 chip (Pseudomonas aeruginosa, UniProt G3XD46)
T1 construct: P. aeruginosa PBP3 (amino acids 40 to 563); His-tag; made in house; host or cells: E. coli BL21 (DE3) Rosetta, plasmid pET41_PBP-3
Experiment: Surface plasmon resonance (SPR), steady-state analysis
Assay type: binding
Settings: 25 °C
Procedure: Next, we confirmed the binding of the best inhibitors (analogues 34, 35, 40, 38 and 37) by surface plasmon resonance (SPR), using ^PaPBP3 coated on a CM5 chip as the ligand. The sensorgrams (Figure A1C and Figure A2C) indicated fast association and dissociation with all compounds tested. Dissociation constants (Kd) were determined via steady-state analysis using the maximum resonance signal obtained with a range of analyte concentrations.
SPR experiments were performed at 25 °C by using a Biacore T200 instrument from Cytiva (Marlborough, MA, USA). Purified ^PaPBP3 was coated on a CM5 chip, that was activated with EDC/NHS (1-ethyl-3-(3-dimethylaminopropyl) carbodiimide/N-hydroxysuccinimide) beforehand and blocked with ethanolamine after protein attachment. We achieved a protein amount of 11.820 RU. For every analyte, two concentration series between 3.25 µM and 200 µM were prepared in the running buffer (13 mM NaCl, 257 µM KCl, 171 µM KH2PO4, 950 µM Na2HPO4, 0.05% Tween-20 and 5% DMSO, pH 7.4) in a 96 well plate. Prior to the injection, the baseline was determined using running buffer for 300 s. Then, the analytes were then associated for 100 s and dissociated for 300 s with a flow rate of 30 µL/min. A 30 s washing step with 50% DMSO was used after every injection to regenerate the chip. In the final step, ten different DMSO concentrations ranging from 4.0% to 5.8% were used as the internal solvent correction. Steady state analysis was performed by using the internal Biacore software and figures were prepared with Prism v.8 using the points of one concentration series, respectively.

T1 sequence (G3XD46 40-563): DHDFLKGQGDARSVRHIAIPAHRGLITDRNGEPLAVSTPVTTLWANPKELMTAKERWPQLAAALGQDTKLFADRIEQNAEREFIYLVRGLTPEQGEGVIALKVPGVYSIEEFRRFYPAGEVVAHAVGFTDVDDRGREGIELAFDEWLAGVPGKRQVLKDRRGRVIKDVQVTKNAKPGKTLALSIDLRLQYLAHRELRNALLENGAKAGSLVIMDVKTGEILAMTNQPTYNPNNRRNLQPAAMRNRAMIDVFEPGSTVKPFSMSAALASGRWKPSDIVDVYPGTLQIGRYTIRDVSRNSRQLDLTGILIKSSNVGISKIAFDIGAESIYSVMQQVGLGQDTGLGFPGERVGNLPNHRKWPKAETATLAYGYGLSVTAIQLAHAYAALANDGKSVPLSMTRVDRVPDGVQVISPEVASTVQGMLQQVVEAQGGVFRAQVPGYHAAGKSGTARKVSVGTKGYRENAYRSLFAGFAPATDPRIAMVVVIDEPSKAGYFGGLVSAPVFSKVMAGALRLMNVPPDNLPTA

Compound	Kd	Kd (µM) SPR
O=C(C1=C(O)C(=O)N(Cc2cc3ccccc3[nH]2)C1c1ccc(Cl)cc1)c1ccc(Br)cc1 (stereo not drawn) [Compound 34, 4-(4-bromobenzoyl)-5-(4-chlorophenyl)-3-hydroxy-1-(1H-indol-2-ylmethyl)-5H-pyrrol-2-one]	6.4 µM and 6.44 µM	–
O=C(C1=C(O)C(=O)N(CCc2c[nH]c3ccccc23)C1c1ccc(Cl)cc1)c1ccc(Br)cc1 (stereo not drawn) [Compound 40]	22.9 µM	–
O=C(C1=C(O)C(=O)N(Cc2nc3ccccc3[nH]2)C1c1ccc(Cl)cc1)c1ccc(Br)cc1 (stereo not drawn) [Compound 38]	62.7 µM	–
O=C(C1=C(O)C(=O)N(CCc2cc3ccccc3[nH]2)C1c1ccc(Cl)cc1)c1ccc(Br)cc1 (stereo not drawn) [Compound 37]	454 µM	too high to conclude a specific binding
O=C(C1=C(O)C(=O)N(Cc2cc3cc(Cl)ccc3[nH]2)C1c1ccc(Cl)cc1)c1ccc(Br)cc1 (stereo not drawn) [Compound 35]	9.8 µM and 9.82 µM	–
